Reference: the NIST ThermoML archive (doi:10.1021/je200637v)
Numbers after ± are expanded uncertainties.

Experiment: activity coefficient (dimensionless); of the first substance listed, at infinite dilution; xn = mol fraction of the nth substance listed
Settings: Liquid, Chromatography, x1 = 0

| Structure (SMILES) | activity coefficient (322.85 K) | activity coefficient (332.65 K) | activity coefficient (343.15 K) |
| --- | --- | --- | --- |
| Cc1ccccc1C [1,2-dimethylbenzene] + CCCCCCCCCC[N+](C)(C)C.O=S(=O)([N-]S(=O)(=O)C(F)(F)F)C(F)(F)F | 1.03 ± 0.03 | 1.07 ± 0.03 | 1.07 ± 0.03 |
| Cc1ccccc1C [1,2-dimethylbenzene] + CCCCCCCC[N+](C)(C)C.O=S(=O)([N-]S(=O)(=O)C(F)(F)F)C(F)(F)F | 1.24 ± 0.04 | 1.26 ± 0.04 | 1.25 ± 0.04 |
| Cc1ccccc1C [1,2-dimethylbenzene] + CCCCCCCC[N+](CCCCCCCC)(CCCCCCCC)CCCCCCCC.O=S(=O)([N-]S(=O)(=O)C(F)(F)F)C(F)(F)F |  | 0.57 ± 0.03 | 0.58 ± 0.03 |
| Cc1ccccc1C [1,2-dimethylbenzene] + CCCC[N+](C)(CCCC)CCCC.O=S(=O)([N-]S(=O)(=O)C(F)(F)F)C(F)(F)F | 1.38 ± 0.05 | 1.46 ± 0.06 | 1.46 ± 0.06 |
| Cc1cccc(C)c1 [1,3-dimethylbenzene] + CCCCCCCCCC[N+](C)(C)C.O=S(=O)([N-]S(=O)(=O)C(F)(F)F)C(F)(F)F | 1.11 ± 0.03 | 1.14 ± 0.03 | 1.11 ± 0.03 |
| Cc1cccc(C)c1 [1,3-dimethylbenzene] + CCCCCCCC[N+](C)(C)C.O=S(=O)([N-]S(=O)(=O)C(F)(F)F)C(F)(F)F | 1.39 ± 0.05 | 1.39 ± 0.05 | 1.38 ± 0.05 |
| Cc1cccc(C)c1 [1,3-dimethylbenzene] + CCCCCCCC[N+](CCCCCCCC)(CCCCCCCC)CCCCCCCC.O=S(=O)([N-]S(=O)(=O)C(F)(F)F)C(F)(F)F |  | 0.6 ± 0.03 | 0.62 ± 0.03 |
| Cc1cccc(C)c1 [1,3-dimethylbenzene] + CCCC[N+](C)(CCCC)CCCC.O=S(=O)([N-]S(=O)(=O)C(F)(F)F)C(F)(F)F | 1.49 ± 0.06 | 1.56 ± 0.06 | 1.56 ± 0.06 |
| Cc1ccc(C)cc1 [1,4-dimethylbenzene] + CCCCCCCCCC[N+](C)(C)C.O=S(=O)([N-]S(=O)(=O)C(F)(F)F)C(F)(F)F | 1.12 ± 0.03 | 1.15 ± 0.04 | 1.13 ± 0.03 |
| Cc1ccc(C)cc1 [1,4-dimethylbenzene] + CCCCCCCC[N+](C)(C)C.O=S(=O)([N-]S(=O)(=O)C(F)(F)F)C(F)(F)F | 1.38 ± 0.05 | 1.39 ± 0.05 | 1.37 ± 0.05 |
| Cc1ccc(C)cc1 [1,4-dimethylbenzene] + CCCCCCCC[N+](CCCCCCCC)(CCCCCCCC)CCCCCCCC.O=S(=O)([N-]S(=O)(=O)C(F)(F)F)C(F)(F)F |  | 0.6 ± 0.03 | 0.62 ± 0.03 |
| Cc1ccc(C)cc1 [1,4-dimethylbenzene] + CCCC[N+](C)(CCCC)CCCC.O=S(=O)([N-]S(=O)(=O)C(F)(F)F)C(F)(F)F | 1.51 ± 0.06 | 1.62 ± 0.07 | 1.56 ± 0.06 |
| C1COCCO1 [1,4-dioxane] + CCCCCCCCCC[N+](C)(C)C.O=S(=O)([N-]S(=O)(=O)C(F)(F)F)C(F)(F)F | 0.56 ± 0.03 | 0.57 ± 0.03 | 0.57 ± 0.03 |
| C1COCCO1 [1,4-dioxane] + CCCCCCCC[N+](C)(C)C.O=S(=O)([N-]S(=O)(=O)C(F)(F)F)C(F)(F)F | 0.62 ± 0.03 | 0.62 ± 0.03 | 0.61 ± 0.03 |
| C1COCCO1 [1,4-dioxane] + CCCCCCCC[N+](CCCCCCCC)(CCCCCCCC)CCCCCCCC.O=S(=O)([N-]S(=O)(=O)C(F)(F)F)C(F)(F)F | 0.47 ± 0.03 | 0.47 ± 0.03 | 0.47 ± 0.03 |
| C1COCCO1 [1,4-dioxane] + CCCC[N+](C)(CCCC)CCCC.O=S(=O)([N-]S(=O)(=O)C(F)(F)F)C(F)(F)F | 0.61 ± 0.03 | 0.67 ± 0.03 | 0.67 ± 0.03 |
| C#CCCCCC [1-heptyne] + CCCCCCCCCC[N+](C)(C)C.O=S(=O)([N-]S(=O)(=O)C(F)(F)F)C(F)(F)F | 1.95 ± 0.09 | 2.02 ± 0.09 | 1.97 ± 0.09 |
| C#CCCCCC [1-heptyne] + CCCCCCCC[N+](C)(C)C.O=S(=O)([N-]S(=O)(=O)C(F)(F)F)C(F)(F)F | 2.48 ± 0.11 | 2.46 ± 0.11 | 2.39 ± 0.11 |
| C#CCCCCC [1-heptyne] + CCCCCCCC[N+](CCCCCCCC)(CCCCCCCC)CCCCCCCC.O=S(=O)([N-]S(=O)(=O)C(F)(F)F)C(F)(F)F | 0.84 ± 0.03 | 0.86 ± 0.03 | 0.87 ± 0.03 |
| C#CCCCCC [1-heptyne] + CCCC[N+](C)(CCCC)CCCC.O=S(=O)([N-]S(=O)(=O)C(F)(F)F)C(F)(F)F | 2.79 ± 0.13 | 2.89 ± 0.13 | 2.85 ± 0.13 |
| C#CCCCC [1-hexyne] + CCCCCCCCCC[N+](C)(C)C.O=S(=O)([N-]S(=O)(=O)C(F)(F)F)C(F)(F)F | 1.61 ± 0.06 | 1.63 ± 0.07 | 1.57 ± 0.06 |

| Structure (SMILES) | activity coefficient (322.85 K) | activity coefficient (332.65 K) | activity coefficient (343.15 K) |
| --- | --- | --- | --- |
| C#CCCCC [1-hexyne] + CCCCCCCC[N+](C)(C)C.O=S(=O)([N-]S(=O)(=O)C(F)(F)F)C(F)(F)F | 1.92 ± 0.08 | 1.89 ± 0.08 | 1.82 ± 0.08 |
| C#CCCCC [1-hexyne] + CCCCCCCC[N+](CCCCCCCC)(CCCCCCCC)CCCCCCCC.O=S(=O)([N-]S(=O)(=O)C(F)(F)F)C(F)(F)F | 0.75 ± 0.03 | 0.76 ± 0.03 | 0.76 ± 0.03 |
| C#CCCCC [1-hexyne] + CCCC[N+](C)(CCCC)CCCC.O=S(=O)([N-]S(=O)(=O)C(F)(F)F)C(F)(F)F | 2.12 ± 0.1 | 2.24 ± 0.1 | 2.2 ± 0.1 |
| CCC[N+](=O)[O-] [1-nitropropane] + CCCCCCCCCC[N+](C)(C)C.O=S(=O)([N-]S(=O)(=O)C(F)(F)F)C(F)(F)F | 0.59 ± 0.03 | 0.59 ± 0.03 | 0.57 ± 0.03 |
| CCC[N+](=O)[O-] [1-nitropropane] + CCCCCCCC[N+](C)(C)C.O=S(=O)([N-]S(=O)(=O)C(F)(F)F)C(F)(F)F | 0.62 ± 0.03 | 0.61 ± 0.03 | 0.6 ± 0.03 |
| CCC[N+](=O)[O-] [1-nitropropane] + CCCCCCCC[N+](CCCCCCCC)(CCCCCCCC)CCCCCCCC.O=S(=O)([N-]S(=O)(=O)C(F)(F)F)C(F)(F)F | 0.48 ± 0.03 | 0.48 ± 0.03 | 0.47 ± 0.03 |
| CCC[N+](=O)[O-] [1-nitropropane] + CCCC[N+](C)(CCCC)CCCC.O=S(=O)([N-]S(=O)(=O)C(F)(F)F)C(F)(F)F | 0.68 ± 0.03 | 0.7 ± 0.03 | 0.68 ± 0.03 |
| OCC(F)(F)F [2,2,2-trifluoroethanol] + CCCCCCCCCC[N+](C)(C)C.O=S(=O)([N-]S(=O)(=O)C(F)(F)F)C(F)(F)F | 0.46 ± 0.03 | 0.44 ± 0.03 | 0.41 ± 0.03 |
| OCC(F)(F)F [2,2,2-trifluoroethanol] + CCCCCCCC[N+](C)(C)C.O=S(=O)([N-]S(=O)(=O)C(F)(F)F)C(F)(F)F | 0.4 ± 0.03 | 0.38 ± 0.03 | 0.35 ± 0.04 |
| OCC(F)(F)F [2,2,2-trifluoroethanol] + CCCCCCCC[N+](CCCCCCCC)(CCCCCCCC)CCCCCCCC.O=S(=O)([N-]S(=O)(=O)C(F)(F)F)C(F)(F)F | 0.48 ± 0.03 | 0.37 ± 0.03 | 0.36 ± 0.04 |
| OCC(F)(F)F [2,2,2-trifluoroethanol] + CCCC[N+](C)(CCCC)CCCC.O=S(=O)([N-]S(=O)(=O)C(F)(F)F)C(F)(F)F | 0.5 ± 0.03 | 0.48 ± 0.03 | 0.45 ± 0.03 |
| CC(C)CC(C)(C)C [2,2,4-trimethylpentane] + CCCCCCCCCC[N+](C)(C)C.O=S(=O)([N-]S(=O)(=O)C(F)(F)F)C(F)(F)F | 5.41 ± 0.25 | 5.29 ± 0.24 | 4.92 ± 0.22 |
| CC(C)CC(C)(C)C [2,2,4-trimethylpentane] + CCCCCCCC[N+](C)(C)C.O=S(=O)([N-]S(=O)(=O)C(F)(F)F)C(F)(F)F | 8.1 ± 0.37 | 7.66 ± 0.35 | 7.14 ± 0.33 |
| CC(C)CC(C)(C)C [2,2,4-trimethylpentane] + CCCCCCCC[N+](CCCCCCCC)(CCCCCCCC)CCCCCCCC.O=S(=O)([N-]S(=O)(=O)C(F)(F)F)C(F)(F)F | 1.52 ± 0.06 | 1.51 ± 0.06 | 1.5 ± 0.06 |
| CC(C)CC(C)(C)C [2,2,4-trimethylpentane] + CCCC[N+](C)(CCCC)CCCC.O=S(=O)([N-]S(=O)(=O)C(F)(F)F)C(F)(F)F | 8.87 ± 0.41 | 8.91 ± 0.41 | 8.42 ± 0.39 |
| CC(C)CO [2-methyl-1-propanol] + CCCCCCCCCC[N+](C)(C)C.O=S(=O)([N-]S(=O)(=O)C(F)(F)F)C(F)(F)F | 1.59 ± 0.06 | 1.47 ± 0.06 | 1.31 ± 0.05 |
| CC(C)CO [2-methyl-1-propanol] + CCCCCCCC[N+](C)(C)C.O=S(=O)([N-]S(=O)(=O)C(F)(F)F)C(F)(F)F | 1.87 ± 0.08 | 1.7 ± 0.07 | 1.51 ± 0.06 |
| CC(C)CO [2-methyl-1-propanol] + CCCCCCCC[N+](CCCCCCCC)(CCCCCCCC)CCCCCCCC.O=S(=O)([N-]S(=O)(=O)C(F)(F)F)C(F)(F)F | 1.17 ± 0.04 | 1.09 ± 0.03 | 1 ± 0.03 |
| CC(C)CO [2-methyl-1-propanol] + CCCC[N+](C)(CCCC)CCCC.O=S(=O)([N-]S(=O)(=O)C(F)(F)F)C(F)(F)F | 1.97 ± 0.09 | 1.82 ± 0.08 | 1.64 ± 0.07 |
| CCC(C)CC [3-methylpentane] + CCCCCCCCCC[N+](C)(C)C.O=S(=O)([N-]S(=O)(=O)C(F)(F)F)C(F)(F)F | 3.88 ± 0.18 | 3.78 ± 0.17 | 3.62 ± 0.16 |
| CCC(C)CC [3-methylpentane] + CCCCCCCC[N+](C)(C)C.O=S(=O)([N-]S(=O)(=O)C(F)(F)F)C(F)(F)F | 5.62 ± 0.26 | 5.24 ± 0.24 | 4.87 ± 0.22 |
